Several values for one entry are separate records, joined by “and”; a condition that tells them apart may be missing. Equal values may be shown once. Inconclusive results and toxic doses are left out. The calls were made as follows: active = survival T/C of 150% or more; inactive = T/C below 125% in these data. Peptide text beside a SMILES is read from it. * marks the point of attachment. Cbz = O=C(OCc1ccccc1)*; Bn = c1ccc(C*)cc1
Test system: P388 leukemia ip, CD2F1 mice, survival T/C
Assay: NCI In Vivo Anticancer Drug Screen. Data for tumor model P388 Leukemia (intraperitoneal) in CD2F1 (CDF1) mice
Details: endpoint: median survival time, higher = longer survival
Method in brief: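 Mice carrying the transplanted tumor received test compound or vehicle. Survival was recorded in each group, and the value is the treated-group measurement divided by that of the vehicle-treated control group.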

[1] = dose: 50.0 mg/kg/injection, schedule: Q01DX005 (ip), vehicle: Klucel (hydroxypropylcellulose) (HPC)
[2] = dose: 100.0 mg/kg/injection, schedule: Q01DX005 (ip), vehicle: Klucel (hydroxypropylcellulose) (HPC)
[3] = dose: 200.0 mg/kg/injection, schedule: Q01DX005 (ip), vehicle: Klucel (hydroxypropylcellulose) (HPC)
[4] = dose: 50.0 mg/kg/injection, schedule: Q01DX009 (ip), vehicle: saline with Tween-80
[5] = dose: 100.0 mg/kg/injection, schedule: Q01DX009 (ip), vehicle: saline with Tween-80
[6] = dose: 50.0 mg/kg/injection, schedule: Q01DX005 (ip), vehicle: saline with Tween-80
[7] = dose: 100.0 mg/kg/injection, schedule: Q01DX005 (ip), vehicle: saline with Tween-80
[8] = dose: 200.0 mg/kg/injection, schedule: Q01DX005 (ip), vehicle: saline with Tween-80
[9] = dose: 60.0 mg/kg/injection, schedule: Q01DX005 (ip), vehicle: saline with Tween-80
[10] = dose: 120.0 mg/kg/injection, schedule: Q01DX005 (ip), vehicle: saline with Tween-80
[11] = dose: 240.0 mg/kg/injection, schedule: Q01DX005 (ip), vehicle: saline with Tween-80

Measured: T/C

Cc1c(O)c2c(c(O)c1Cc1ccc(CN)cc1)C(=O)c1ccccc1C2=O
inactive: dose: 12.5 mg/kg/injection, schedule: Q04DX003 (ip), vehicle: water 98 % of control | dose: 25.0 mg/kg/injection, schedule: Q04DX003 (ip), vehicle: water 90 % of control | dose: 50.0 mg/kg/injection, schedule: Q04DX003 (ip), vehicle: water 93 % of control | dose: 100.0 mg/kg/injection, schedule: Q04DX003 (ip), vehicle: water 103 % of control

Nc1cc(Cl)cc2c1-c1ccc(Cl)cc1C2
inactive: [1] 93 % of control | [2] 93 % of control | [3] 94 % of control

C/C(=N\NC1=NCCN1)c1cn(C2=NCCN2)nc1C
inactive: dose: 15.0 mg/kg/injection, schedule: Q01DX005 (ip), vehicle: saline 99 % of control | dose: 30.0 mg/kg/injection, schedule: Q01DX005 (ip), vehicle: saline 97 % of control | dose: 60.0 mg/kg/injection, schedule: Q01DX005 (ip), vehicle: saline 102 % of control and 106 % of control

Cc1ccc(C(O)(c2ccc(C)cc2)C2(O)CCN(C)CC2)cc1
inactive: [1] 107 % of control | [2] 97 % of control | [3] 92 % of control

CCN(CC)Cc1c(C)[nH]c2ccccc2c1=O
inactive: [4] 109 % of control | [5] 118 % of control

O=C(CCCN1CCC(C(O)c2ccc(F)cc2)CC1)c1ccc(F)cc1 (stereo not given)
inactive: dose: 3.0 mg/kg/injection, schedule: Q01DX005 (ip), vehicle: saline with Tween-80 101 % of control | dose: 3.13 mg/kg/injection, schedule: Q01DX009 (ip), vehicle: saline with Tween-80 98 % of control | dose: 6.0 mg/kg/injection, schedule: Q01DX005 (ip), vehicle: saline with Tween-80 104 % of control | dose: 6.25 mg/kg/injection, schedule: Q01DX009 (ip), vehicle: saline with Tween-80 92 % of control | dose: 12.0 mg/kg/injection, schedule: Q01DX005 (ip), vehicle: saline with Tween-80 98 % of control | dose: 12.5 mg/kg/injection, schedule: Q01DX009 (ip), vehicle: saline with Tween-80 103 % of control | dose: 25.0 mg/kg/injection, schedule: Q01DX009 (ip), vehicle: saline with Tween-80 107 % of control | [6] 114 % of control | [4] 100 % of control | [5] 95 % of control

c1ccc(/C(=N\Nc2ccc3ccccc3n2)c2ccccn2)cc1
inactive: [6] 110 % of control | [7] 94 % of control | [8] 100 % of control

Cc1cccc(NC(=O)C(=O)CC(=O)c2ccc([N+](=O)[O-])cc2)c1C
inactive: [6] 105 % of control | [7] 108 % of control | [8] 106 % of control

CCOc1ccc(C[Se][Se]Cc2ccc(OCC)cc2)cc1
inactive: dose: 50.0 mg/kg/injection, schedule: Q01DX009 (ip), vehicle: Klucel (hydroxypropylcellulose) (HPC) 109 % of control | dose: 100.0 mg/kg/injection, schedule: Q01DX009 (ip), vehicle: Klucel (hydroxypropylcellulose) (HPC) 91 % of control

[Fe+2].[Fe+2].c1ccc2c(c1)-c1nc-2nc2[n-]c(nc3nc(nc4[n-]c(n1)c1ccccc41)-c1ccccc1-3)c1cc3c4nc5nc(nc6[n-]c(nc7nc(nc([n-]4)c3cc21)-c1ccccc1-7)c1ccccc61)-c1ccccc1-5
inactive: [1] 100 % of control | [2] 110 % of control | [3] 106 % of control

COc1ccc(C(Cc2ccccc2)NCCNCCO)cc1 (stereo not given)
inactive: [1] 101 % of control | [2] 101 % of control

O=C(NCC1CC1)c1ccccc1NC(=O)c1cc2ccccc2oc1=O
inactive: [9] 100 % of control | [10] 100 % of control | [11] 108 % of control

COc1cc(OC)cc(C(C)(C)C)c1
inactive: dose: 50.0 mg/kg/injection, schedule: Q01DX009 (ip), vehicle: saline 97 % of control | dose: 100.0 mg/kg/injection, schedule: Q01DX009 (ip), vehicle: saline 100 % of control | dose: 200.0 mg/kg/injection, schedule: Q01DX009 (ip), vehicle: saline 107 % of control

CCOC(=O)CNC(=O)C(CSCc1ccccc1)NC(=O)C(NC(=O)OCc1ccccc1)C(C)C (stereo not drawn) (Cbz-Val-Cys(Bn)-Gly-OEt; configuration not given here)
inactive: [1] 98 % of control | [2] 100 % of control | [3] 88 % of control

CC(C)(C)NC(=O)Nc1cccc(C(=O)O)c1
inactive: [9] 99 % of control | [10] 96 % of control | [11] 105 % of control

Source: PubChem BioAssay AID330 (DTP/NCI, 2004)
